# Source: patent US20030144271A1, “Methods for the treatment of substance abuse” (priority 2000, published 2003)
# Where “and” joins values, the source holds several entries; their conditions need not be identical. Identical values can stand only once. Entries after “also recorded” stand apart in the source; their conditions may differ.
# Tests used:
# [1] = test system: alcohol / volatile inhalant dependent patients; assay: Open Alc/Inhalant therapeutic (N + A + CCB) drug dependence trial (Example 7, Table 2); assay type: in vivo, human; conditions: A666 × 3 mg/d; for Key Parameters: Audit Score: score out of 40; for Key Parameters: Abstinence / Key Parameters: Craving / Key Parameters: Relapse: scale 0-10
# Description: (§1) (v) Scoring of key parameters was based on questionaries completed by the subject. For the audit score, an initial base-line questionnaire preceding treatment and subsequently, a similar weekly questionnaire, following each week of treatment was conducted by the trial clinician and trial subject. The subject's answers were assigned a value and the score for all 10 questions totalled (out of 40). A total of 13+ is indicated as alcohol dependent, 8+ as a hazardous drinker and less than 8 a safe drinker, with 0 indicating abstinence. Levels of Craving, tendency to Relapse and degree of Abstinence were rated by the subject on a scale of 0-10, with 0,0 indicating absence of craving and relapse respectively, and 10 indicating total abstinence from alcohol and volatile inhalant.
# Two patients were treated in an open trial with a daily dose of naltrexone, acamprosate and verapamil. Key parameters were evaluated as per Example 6. The results are presented in Table 2, depicting treatment duration, patient characteristics, key parameters and improved parameters and side-effects.
# [2] = test system: detoxified opiate subjects; assay: Double-blind placebo-controlled cross-over trial in detoxified opiate subjects (Table 1A, comparative); assay type: in vivo, human; conditions: weekly; for Abstinence: scale 0-10, 10 = total abstinence
# From the text: (ii) To permit their optimal comparison by the same test subject, treatments A & C were both given for the same and longest length of time available before the trial was terminated. […] The actual drug components of treatments A, B and C for each trial subject, and the duration of each treatment are also shown in Table 1 in each case.
# as §1, with “For the audit score, an initial base-line questionnaire preceding treatment and subsequently, a similar weekly questionnaire, following each week of treatment was conducted by the trial clinician and trial subject.” left out
# […] […] However, many opiate (or other substance) addicts also have a secondary addiction to alcohol or use alcohol excessively when they are unable to obtain the opiate of addiction. The present invention can also be used to treat such multi-substance addicted subjects.
# [3] = in vivo; cited from earlier work
# [4] = test system: detoxified alcoholic patients; assay: N-of-1 double-blind placebo-controlled cross-over clinical trial in detoxified alcoholic patients (Example 6, Table 1); assay type: in vivo, human; conditions: 5 mg, in two subjects
# Description: The patient characteristics, their randomised active and control treatments and their outcomes, and the key and ancillary parameters on which the progressive comparative weekly safeties and efficacies of the active and control treatments were determined for each of the 6 double-blind trial subjects are all shown in Table 1.
# (i) Each trial subject received sequentially 3 different but operationally-related individual treatments, each on an oral once daily basis, labelled, for convenience, A (which may randomly be an active or control treatment), B (wash-out) and C (which may also randomly be a control or […])
# (ii) To permit their optimal comparison by the same test subject, treatments A & C were both given for the same and longest length of time available before the trial was terminated. Patient and clinician bias in interpretation was minimised or excluded by giving these treatments on a randomised double-blind basis which ensured that neither knew if the active or control treatment was given first or last. Thus sometimes, labelled treatment A or C was the active or control treatment and vice versa. The actual drug components of treatments A, B and C for each trial subject, and the duration of each treatment are also shown in Table 1 in each case. […]
structure (smiles),measurement,setting,value
CC(=O)NCCCS(=O)(=O)O [A666 × 3],Key Parameters: Audit Score,"[1]; subject 1 (Alc 20+ Units/d), 01/07/00",37
same,Improved (1) Ancillary Parameters: Energy,"[1]; subject 1, 01/07/00",0
same,Improved (1) Ancillary Parameters: In-Control,"[1]; subject 1, 01/07/00",0
same,Improved (1) Ancillary Parameters: Thinking,"[1]; subject 1, 01/07/00",0
same,Patient's View,"[1]; subject 1, 01/07/00",0
same,Side-effects,"[1]; subject 1, 01/07/00",Nil
same,Key Parameters: Abstinence,"[1]; subject 1, 01/07/00",0
same,Key Parameters: Craving,"[1]; subject 1, 01/07/00",8
same,Key Parameters: Relapse,"[1]; subject 1, 01/07/00",10
same,Improved (1) Ancillary Parameters: Energy,"[1]; subject 1, 09/07/00",0
same,Improved (1) Ancillary Parameters: Thinking,"[1]; subject 1, 09/07/00",0
same,Patient's View,"[1]; subject 1, 09/07/00",Progress+
same,Side-effects,"[1]; subject 1, 09/07/00",Nil
same,Key Parameters: Abstinence,"[1]; subject 1, 09/07/00",1
same,Key Parameters: Craving,"[1]; subject 1, 09/07/00",7
same,Key Parameters: Relapse,"[1]; subject 1, 09/07/00",8
same,Key Parameters: Audit Score,"[1]; subject 1, 09/07/00",37
O=C1CC[C@@]2(O)[C@H]3Cc4ccc(O)c5c4[C@@]2(CCN3CC2CC2)[C@H]1O5 [N25 + Pl],Relapse,"[2]; scale 0-10, 0 = absence, listed as N5 + Pl",0
same,Abstinence,[2]; listed as N5 + Pl,10
same,Patient's View,[2],Progress 0
same,Patient's View,[2]; assessment date 03/11/00,Progress +/−
same,Patient's View,[2]; assessment date 15/11/00,Progress +
same,Patient's View,[2]; listed as N5 + Pl,Progress ++
same,Patient's View,"[2]; listed as NAll25 + Pl, assessment date 03/11/00",Progress+/−
same,Patient's View,"[2]; listed as NAll25 + Pl, assessment date 15/11/00",Progress+
"O=C1CC[C@@]2(O)[C@H]3Cc4ccc(O)c5c4[C@@]2(CCN3CC2CC2)[C@H]1O5 [N25, Naltrexone]",Abstinence,[2],10 and 8
same,Patient's View,[2],Progress+; also recorded: Progress++; also recorded: Progress+++
CCOC(=O)C1=C(COCCN)NC(C)=C(C(=O)OC)C1c1ccccc1Cl (centres unmarked) [amlodipine],time to reach a plateau plasma concentration,[3],5 to 10 days
same,Side-effects of the administered dose,[4],a number of initial transient side-effects
